Patent US7049321B2, “Methods and pharmaceutical compositions for treatment of central and peripheral nervous system disorders and compounds useful therefor” (Israel Institute for Biological Research, priority 2002, dated 2006)

What was measured:
muscarinic receptor = assay: [3H]OXO-M competition binding; settings: rat cortex
M1 receptors = molecular target: T1, M1 receptors (Rattus norvegicus, UniProt P08482); assay: [3H]PZ competition binding to rat cortical membranes; settings: rat cortex
T1 construct: from tissue; host or cells: rat cortical membranes
T1 sequence (P08482 1-460): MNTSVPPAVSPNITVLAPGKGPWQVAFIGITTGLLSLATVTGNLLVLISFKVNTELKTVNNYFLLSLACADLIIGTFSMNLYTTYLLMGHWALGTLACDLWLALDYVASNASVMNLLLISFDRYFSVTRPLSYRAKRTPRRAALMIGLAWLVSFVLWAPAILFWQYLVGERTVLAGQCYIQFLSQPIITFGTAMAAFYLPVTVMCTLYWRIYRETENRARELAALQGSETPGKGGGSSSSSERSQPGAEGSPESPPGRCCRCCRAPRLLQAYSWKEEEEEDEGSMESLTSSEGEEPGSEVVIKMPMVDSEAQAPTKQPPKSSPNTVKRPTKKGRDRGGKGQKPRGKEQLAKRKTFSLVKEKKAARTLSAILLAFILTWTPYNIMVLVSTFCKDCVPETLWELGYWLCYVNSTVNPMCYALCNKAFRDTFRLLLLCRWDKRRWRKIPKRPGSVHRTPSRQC
Excerpt: Pirenzepine (PZ), a muscarinic antagonist, binds preferentially to M1 receptors while OXO-M binds to all mAChR subtypes non-selectively; the ratio between the Ki values for PZ versus that of OXO-M may be indicative of the selectivity of the tested compound. The smaller the ratio, the more M1 selective is the tested compound. […] The OXO-M/PZ ratio is ˜0.36 showing a moderately high selectivity for the M1 receptor.

M2 mAChR = molecular target: T2, M2 mAChR (Homo sapiens, UniProt P08172); assay: Intracellular Ca increase in modified cell cultures, M2; format: cell-based
T2 construct: expressed in transfected cells; host or cells: 'modified cell cultures' giving a Ca increase; modification not described

[1] = system: rat primary cerebral cortex cell cultures; assay: APPs secretion in rat primary cortical cell cultures; format: cell-based; settings: 100 μm
[2] = system: rat primary hippocampal cell cultures; assay: APPs secretion in rat primary hippocampal cell cultures; format: cell-based; settings: 100 μm
rabbits with nbm lesions = assay: CSF and cortical Aβ in hypocholinergic (nbm-lesioned) rabbits; format: in vivo, New Zealand White rabbits; settings: 4 weeks
Excerpt: It is known that experimentally-induced cortical cholinergic denervation results in biochemical elevations of cortical Aβ concentrations and in histologic Aβ deposition (Beach et al, Neurosci Lett 283: 9–12, 2000), and that administration of muscarinic Ml-selective agents to normal animals decreases CSF AP concentrations {Beach et al Brain Res. 905: 220–223, 2001}.
Twenty-eight female New Zealand White rabbits, about 2.5 kg each (young adults) were used. Twenty-one received lesions of the cholinergic nucleus basalis magnocellularis (nbm). The lesion was accomplished with unilateral i.c.v. injections of an immunotoxin consisting of the ribosomal toxin saporin conjugated to the monoclonal antibody ME20.4, which is directed against the low-affinity neurotrophin receptor, p75. The ME20.4 antibody is made against monkey p75 and also recognizes rabbit p75. The dose of immunotoxin was 32.4 μg in 12 μl; this was delivered to the right lateral ventricle 2 mm lateral to the bregma. Seven animals received i.c.v. injections of sterile normal saline (sham lesion). Animals which received the immunotoxin were divided into 3 groups of 7. […] Another group received physostigmine hemisalicylate in normal saline by s.c. osmotic pump at a daily dose of 3 mg/kg. The third group received twice-daily sterile saline s.c. injections. The animals which received a sham lesion were implanted with s.c. osmotic pumps filled with sterile normal saline. Animals were euthanized 4 weeks after surgery. […] Cerebrospinal fluid was taken from the cisterna magna of all animals at the time of sacrifice; the brain was removed and sliced coronally into 0.5 cm slices. […] The other slices were frozen on sheets of dry ice (the other slices are the non-fixed 0.5 cm coronal slices of cerebrum, brainstem and cerebellum).

T2 sequence (P08172 whole entry): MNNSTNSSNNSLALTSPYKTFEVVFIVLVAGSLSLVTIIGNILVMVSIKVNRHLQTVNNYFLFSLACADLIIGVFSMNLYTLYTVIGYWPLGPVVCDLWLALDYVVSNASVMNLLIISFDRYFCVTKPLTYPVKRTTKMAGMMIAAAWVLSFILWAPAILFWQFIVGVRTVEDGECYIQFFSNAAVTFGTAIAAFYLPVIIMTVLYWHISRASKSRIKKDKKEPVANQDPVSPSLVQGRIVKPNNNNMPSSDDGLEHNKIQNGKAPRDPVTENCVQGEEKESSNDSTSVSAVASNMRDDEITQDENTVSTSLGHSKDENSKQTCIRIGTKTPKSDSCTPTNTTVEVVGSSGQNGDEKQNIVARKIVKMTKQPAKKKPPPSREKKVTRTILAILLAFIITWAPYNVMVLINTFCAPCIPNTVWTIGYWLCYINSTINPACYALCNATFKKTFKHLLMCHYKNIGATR

CC[C@H]1SC2(CCNCC2)NC1=O [AF291, (R)-2-Ethyl-1-thia-4,8-diaza-spiro[4.5]decan-3-one]
Ki (muscarinic receptor): 6.56 µM | Ki (M1 receptors): 10.7 µM

C[N+](C)(C)CCOC(N)=O [carbachol, reference compound]
Increase in activity on the M2 mAChR (M2 mAChR): 8 fold

CNC(=O)Oc1ccc2c(c1)[C@]1(C)CCN(C)[C@@H]1N2C [physostigmine, reference compound]
APPs secretion, activity in words [1]: inactive | APPs secretion, activity in words [2]: inactive | Histologic Aβ deposition, % of the lesioned, untreated group (rabbits with nbm lesions): 6.4%
